Tests used:
[1] = Half life in Sprague-Dawley rat at 10 mg/kg, po; assay type: ADME, organism-based; design: dose 10 mg/kg, route oral; conditions: in vivo
[2] = AUC (0 to infinity) in Sprague-Dawley rat at 1 mg/kg, po; assay type: ADME, organism-based; design: time infinity, dose 1 mg/kg, route oral; conditions: plasma
[3] = Clearance in Beagle dog at 5 mg/kg, po or 1 mg/kg, iv; assay type: ADME, organism-based, Canis lupus familiaris; conditions: in vivo
[4] = Oral bioavailability in Sprague-Dawley rat at 10 mg/kg; assay type: ADME, organism-based; conditions: in vivo
[5] = Clearance in Sprague-Dawley rat at 10 mg/kg, po or 2.5 mg/kg, iv; assay type: ADME, organism-based; conditions: in vivo
[6] = AUC (0 to infinity) in Beagle dog at 1 mg/kg, po; assay type: ADME, organism-based, Canis lupus familiaris; design: time infinity, dose 1 mg/kg, route oral; conditions: plasma
[7] = Volume of distribution at steady state in Sprague-Dawley rat at 10 mg/kg, po or 2.5 mg/kg, iv; assay type: ADME, organism-based; conditions: in vivo, read-out: Vdss
[8] = Volume of distribution at steady state in Beagle dog at 5 mg/kg, po or 1 mg/kg, iv; assay type: ADME, organism-based, Canis lupus familiaris; conditions: in vivo, read-out: Vdss
[9] = Half life in Beagle dog at 5 mg/kg, po; assay type: ADME, organism-based, Canis lupus familiaris; design: dose 5 mg/kg, route oral; conditions: in vivo
[10] = Oral bioavailability in Beagle dog at 5 mg/kg; assay type: ADME, organism-based, Canis lupus familiaris; conditions: in vivo
[11] = Metabolic stability in rat liver microsomes assessed as half life; assay type: ADME, Microsome

half-life [1] [h] | AUC(0-inf) [2] [ng·h/mL] | clearance [3] [mL/min/kg] | bioavailability [4] [%] | clearance [5] [mL/min/kg] | AUC(0-inf) [6] [ng·h/mL] | Vd [7] [L/kg] | Vd [8] [L/kg] | half-life [9] [h] | bioavailability [10] [%] | half-life [11] [h] | Compound
5.4 | 4380 | 13 | 28 | 1.1 | 620 | 0.28 | 0.5 | 4 | 45 |  | Cc1cc(C)c(NC(=O)Nc2cc3ccccc3cc2C(=O)NC2(C(=O)O)CCCCCCC2)c(C)c1
 |  |  |  |  |  |  |  |  |  | < 0.25 | Cc1cc(C)c(NC(=O)Nc2cc3ccccc3cc2C(=O)N[C@H](C(=O)O)C2CCCCC2)c(C)c1
4.1 | 1720 |  | 37 | 7.5 |  | 0.3 |  |  |  |  | Cc1cc(C)c(NC(=O)Nc2cc3ccccc3cc2C(=O)N[C@](C)(C(=O)O)C2CCCCC2)c(C)c1
